Assay results published in patent US6858589B2, “Methods of and compositions for potentiating the action of agents active on cell wall sites of the susceptible bacteria” (priority 1996, dated 2005).

Columns and labels:
[1] = test system: E. coli NCTC 10418; experiment: E. coli counts after gentamicin profile (peak 4 mg/l, then reconstituted maintained concentration); assay type: cell-based, Escherichia coli
Method: The aminoglycoside reached a peak concentration of 4 mg/l 30 minutes post-dose and was removed from the E. coli culture by washing. Medium containing 0, 2, 2.5 and 3 mg/l gentamicin was reconstituted and added to the culture at 1 hour after initial exposure to the aminoglycoside (n=6).
(§1) The experimental work described herein involved testing bacterial response while changing aminoglycoside concentrations with time in the test tube, and mimics closely measurements made in man under clinical conditions (Bastone E B, Li S C, Ioannides-Demos L L, Spicer J., McLean A J, “Kill kinetics and regrowth patterns of E. coli exposed to gentamicin concentration-time profiles simulating in vivo bolus or infusion dosing”, Antimicrob Agents Chemother. 37:914-917, 1993).
With each antibiotic, concentration-time profiles similar to those observed in the blood of clinical patients following conventional intravenous dosing of an aminoglycoside (gentamicin) and pump-driven profiles of gentamicin and cephalosporin (cephazolin) were attained. The concentration-time profiles for each drug class have the general form shown in FIG. IA and FIG. IIIA of the accompanying drawings. Additionally a gentamicin profile of the form shown in FIG. IIIA was generated, which reached a peak of 12 mg/l over 3 hours, was maintained at 12 mg/l for a further hour, then was reconstituted to a range of steady-state concentrations (0, 0.5, 1.0, 2.0, 3.0, 4.0 mg/l) to yield the experimental results shown in Table 4. […]

[2] = test system: E. coli NCTC 10418; experiment: Kill kinetics and regrowth of E. coli after gentamicin bolus pre-exposure followed by maintained cephazolin; assay type: cell-based, Escherichia coli; settings: 8 mg/L bolus gentamicin, then cephazolin 0 mg/L
Description: In comparative experiments described in the examples herein, a reference strain of Escherichi coli (E. coli NCTC 10418) was exposed to constant concentrations of cephazolin in the culture medium (see FIGS. 1A and IIA).
as §1
The form of this profile is governed in vivo by distribution into tissue from the central circulation. In in vitro experiments, gentamicin was removed (T=0 time) by centrifugation and washing with antibiotic-free medium. The incubation was reconstituted with media containing 0 mg/l, 1 mg/l or 2 mg/l cephazolin (see FIG. IA).
In FIG. IB, it can be seen that the pattern of growth of control organisms (not exposed to antibiotic) is designated by the dotted line ( - - - ), while the growth patterns of test organisms are represented by the solid lines with symbols indicating each type of treatment or test (FIG. IB).

With gentamicin the “BACTERIAL COUNTS” value ([1]; peak 4 mg/liter, reconstituted to 3.0 mg/liter at 1 hr, maintained 0 hr (control), 3 hr) was 3.05 ± 0.33 log ^10 (CFU/mL), the “BACTERIAL COUNTS” value ([1]; peak 4 mg/liter, reconstituted to 3.0 mg/liter at 1 hr, maintained 0 hr (control), 11 hr) was 8.89 ± 0.20 log ^10 (CFU/mL) and the “BACTERIAL COUNTS” value ([1]; peak 4 mg/liter, reconstituted to 3.0 mg/liter at 1 hr, maintained 0 hr (control), 25 hr) was 9.07 ± 0.12 log ^10 (CFU/mL). For the same substance, the “BACTERIAL COUNTS” value ([1]; peak 4 mg/liter, reconstituted to 3.0 mg/liter at 1 hr, maintained 0 hr (control), 49 hr) was 9.01 ± 0.06 log ^10 (CFU/mL), the “BACTERIAL COUNTS” value ([1]; peak 4 mg/liter, reconstituted to 3.0 mg/liter at 1 hr, maintained 2 hr, 3 hr) was 0.17 ± 0.41 log ^10 (CFU/mL) and the “BACTERIAL COUNTS” value ([1]; peak 4 mg/liter, reconstituted to 3.0 mg/liter at 1 hr, maintained 2 hr, 11 hr) was 0.55 ± 0.61 log ^10 (CFU/mL). For the same substance, the “BACTERIAL COUNTS” value ([1]; peak 4 mg/liter, reconstituted to 3.0 mg/liter at 1 hr, maintained 2 hr, 25 hr) was 7.95 ± 0.54 log ^10 (CFU/mL), the “BACTERIAL COUNTS” value ([1]; peak 4 mg/liter, reconstituted to 3.0 mg/liter at 1 hr, maintained 2 hr, 49 hr) was 8.89 ± 0.19 log ^10 (CFU/mL) and the “BACTERIAL COUNTS” value ([1]; peak 4 mg/liter, reconstituted to 3.0 mg/liter at 1 hr, maintained 4 hr, 3 hr) was 0.17 ± 0.41 log ^10 (CFU/mL). The “BACTERIAL COUNTS” value ([1]; peak 4 mg/liter, reconstituted to 3.0 mg/liter at 1 hr, maintained 4 hr, 11 hr) was 0.17 ± 0.41 log ^10 (CFU/mL), the “BACTERIAL COUNTS” value ([1]; peak 4 mg/liter, reconstituted to 3.0 mg/liter at 1 hr, maintained 4 hr, 25 hr) was 5.18 ± 4.02 log ^10 (CFU/mL) and the “BACTERIAL COUNTS” value ([1]; peak 4 mg/liter, reconstituted to 3.0 mg/liter at 1 hr, maintained 4 hr, 49 hr) was 5.99 ± 4.64 log ^10 (CFU/mL). For the same substance, the “BACTERIAL COUNTS” value ([1]; peak 4 mg/liter, reconstituted to 3.0 mg/liter at 1 hr, maintained 8 hr, 3 hr) was 0.33 ± 0.52 log ^10 (CFU/mL), the “BACTERIAL COUNTS” value ([1]; peak 4 mg/liter, reconstituted to 3.0 mg/liter at 1 hr, maintained 8 hr, 11 hr) was “NGD” and the “BACTERIAL COUNTS” value ([1]; peak 4 mg/liter, reconstituted to 3.0 mg/liter at 1 hr, maintained 8 hr, 25 hr) was “NGD”. The “BACTERIAL COUNTS” value ([1]; peak 4 mg/liter, reconstituted to 3.0 mg/liter at 1 hr, maintained 8 hr, 49 hr) was “NGD”, the “BACTERIAL COUNTS” value ([1]; post-distribution peak 4 mg/liter, reconstituted at 1 hr to 0 mg/liter, 3 hr) was 3.96 ± 0.70 log ^10 (CFU/mL) and the “BACTERIAL COUNTS” value ([1]; post-distribution peak 4 mg/liter, reconstituted at 1 hr to 0 mg/liter, 11 hr) was 9.24 ± 0.34 log ^10 (CFU/mL). The “BACTERIAL COUNTS” value ([1]; post-distribution peak 4 mg/liter, reconstituted at 1 hr to 0 mg/liter, 25 hr) was 9.15 ± 0.17 log ^10 (CFU/mL), the “BACTERIAL COUNTS” value ([1]; post-distribution peak 4 mg/liter, reconstituted at 1 hr to 0 mg/liter, 49 hr) was 8.93 ± 0.12 log ^10 (CFU/mL) and the “BACTERIAL COUNTS” value ([1]; post-distribution peak 4 mg/liter, reconstituted at 1 hr to 2.0 mg/liter, 3 hr) was 1.92 ± 1.21 log ^10 (CFU/mL). For the same substance, the “BACTERIAL COUNTS” value ([1]; post-distribution peak 4 mg/liter, reconstituted at 1 hr to 2.0 mg/liter, 11 hr) was 7.76 ± 1.06 log ^10 (CFU/mL), the “BACTERIAL COUNTS” value ([1]; post-distribution peak 4 mg/liter, reconstituted at 1 hr to 2.0 mg/liter, 25 hr) was 8.69 ± 0.63 log ^10 (CFU/mL) and the “BACTERIAL COUNTS” value ([1]; post-distribution peak 4 mg/liter, reconstituted at 1 hr to 2.0 mg/liter, 49 hr) was 9.34 ± 0.27 log ^10 (CFU/mL). The “BACTERIAL COUNTS” value ([1]; post-distribution peak 4 mg/liter, reconstituted at 1 hr to 2.5 mg/liter, 3 hr) was 0.33 ± 0.52 log ^10 (CFU/mL), the “BACTERIAL COUNTS” value ([1]; post-distribution peak 4 mg/liter, reconstituted at 1 hr to 2.5 mg/liter, 11 hr) was 0.33 ± 0.52 log ^10 (CFU/mL) and the “BACTERIAL COUNTS” value ([1]; post-distribution peak 4 mg/liter, reconstituted at 1 hr to 2.5 mg/liter, 25 hr) was 4.85 ± 3.82 log ^10 (CFU/mL). The “BACTERIAL COUNTS” value ([1]; post-distribution peak 4 mg/liter, reconstituted at 1 hr to 2.5 mg/liter, 49 hr) was 5.98 ± 4.63 log ^10 (CFU/mL), the “BACTERIAL COUNTS” value ([1]; post-distribution peak 4 mg/liter, reconstituted at 1 hr to 3.0 mg/liter, 3 hr) was 0.33 ± 0.52 log ^10 (CFU/mL) and the “BACTERIAL COUNTS” value ([1]; post-distribution peak 4 mg/liter, reconstituted at 1 hr to 3.0 mg/liter, 11 hr) was “NGD”. The “BACTERIAL COUNTS” value ([1]; post-distribution peak 4 mg/liter, reconstituted at 1 hr to 3.0 mg/liter, 25 hr) was “NGD”, the “BACTERIAL COUNTS” value ([1]; post-distribution peak 4 mg/liter, reconstituted at 1 hr to 3.0 mg/liter, 49 hr) was “NGD” and the “BACTERIAL COUNTS” value ([2]; 2 h) was 1.32 ± 0.69 log10 cfu/mL. For the same substance, the “BACTERIAL COUNTS” value ([2]; 8 h) was 4.91 ± 0.70 log10 cfu/mL, the “BACTERIAL COUNTS” value ([2]; 24 h) was 8.88 ± 0.11 log10 cfu/mL and the “BACTERIAL COUNTS” value ([2]; −0.5 h) was 5.87 ± 0.35 log10 cfu/mL.
